Measured values taken from US8217055B2, “Pyrido-pyrazine derivatives useful as herbicidal compounds” (Syngenta Crop Protection LLC, priority 2006, dated 2012).

What was measured:
Test in all cases: Example B2 herbicidal action, post-emergence, pots in glasshouse, evaluated after 13 days (10=total damage to plant; 0=no damage to plant)
Format in all cases: in vivo
Details in all cases: rate 1000 g/ha
Echinochloa crus-galli = test system: Echinochloa crus-galli
Procedure: (§1) Seeds of a variety of test species were sown in standard soil in pots. After 8 days cultivation (post-emergence) under controlled conditions in a glasshouse (at 24/16° C., day/night; 14 hours light; 65% humidity), the plants were sprayed with an aqueous spray solution derived from the formulation of the technical active ingredient in acetone/water (50:50) solution containing 0.5% Tween 20 (polyoxyethelyene sorbitan monolaurate, CAS RN 9005-64-5). The test plants were then grown in a glasshouse under controlled conditions in a glasshouse (at 24/16° C., day/night; 14 hours light; 65% humidity) and watered twice daily. After 13 days, the test was evaluated (10=total damage to plant; 0=no damage to plant).

Amaranthus retroflexus = test system: Amaranthus retroflexus
Procedure: as §1

Setaria faberi = test system: Setaria faberi
Procedure: as §1

Ipomea hederaceae = test system: Ipomea hederaceae
Procedure: as §1

Solanum nigrum = test system: Solanum nigrum
Procedure: as §1

SMILES	ECHCG damage score (10=total damage to plant; 0=no damage to plant) (Echinochloa crus-galli)	AMARE damage score (10=total damage to plant; 0=no damage to plant) (Amaranthus retroflexus)	SETFA damage score (10=total damage to plant; 0=no damage to plant) (Setaria faberi)	IPOHE damage score (10=total damage to plant; 0=no damage to plant) (Ipomea hederaceae)	SOLNI damage score (10=total damage to plant; 0=no damage to plant) (Solanum nigrum)
CC(C)(C)C(=O)Oc1c(-c2c(F)ccc(F)c2Cl)c(=O)n(CCF)c2nccnc12 [C9, 2,2-dimethyl-propionic acid 7-(2-chloro-3,6-difluoro-phenyl)-5-(2-fluoro-ethyl)-6-oxo-5,6-dihydro-pyrido[2,3-b]pyrazin-8-yl ester]	0	7	0	5	4
CC(C)C(=O)Oc1c(-c2cc(F)ccc2Cl)c(=O)n(CC(F)F)c2nccnc12 [A13]	8	10	9	10	10
CC(C)(C)C(=O)Oc1c(-c2c(F)ccc(F)c2Cl)c(=O)n(CC=C(Cl)Cl)c2nccnc12 [C13]	0	0	0	1	3
CC(C)(C)C(=O)Oc1c(-c2c(F)ccc(Cl)c2Cl)c(=O)n(CC(F)F)c2nccnc12 [A32]	4	10	7	9	10
Cc1cc(C)c(-c2c(O)c3nccnc3n(CC(F)F)c2=O)c(C)c1 [B5]	8	7	8	10	10
CC(C)(C)C(=O)Oc1c(-c2cc(F)ccc2Cl)c(=O)n(CC(F)F)c2nccnc12 [A14]	7	10	9	10	10
Cc1cc(C)c(-c2c(OC(=O)C(C)(C)C)c3nccnc3n(CC(F)F)c2=O)c(C)c1 [A25]	7	7	7	8	10
CCc1ccccc1-c1c(OC(=O)C(C)C)c2nccnc2n(CC(F)F)c1=O [A45]	5	10	8	9	10
COc1ccc(OC(F)(F)F)cc1-c1c(O)c2nccnc2n(CC(F)F)c1=O [B8]	9	10	9	9	9
